Results as given in patent US20250009649A1, “Implants for Loss of Taste and Smell” (Cyrano Therapeutics, Inc., priority 2021, published 2025).

How the values were obtained:
[1] = system: patient who had loss of taste and smell from COVID-19; test: Psychophysical smell test, forced-choice, three-stimuli, stepwise-staircase technique (detection and recognition thresholds for four odors); format: in vivo, human
From the text: The Patient initially reported their sensory dysfunction as either loss of taste (i.e., flavor) and/or smell function. This subjective response was documented by objective psychophysical measurements of olfactory function administered to each patient by use of a forced-choice, three-stimuli, stepwise-staircase technique in a fixed, controlled design (1, 2). Efficacy of this technique and results of testing were previously documented in a double-blind clinical trial (2). Four odors were used; they were pyridine (dead-fish odor), nitrobenzene (bitter-almond odor), thiophene (petroleum-like odor) and amyl acetate (banana-oil odor). Detection thresholds (DT), and recognition thresholds (RT) values for each odor were determined as previously described (1, 2). Thresholds were converted into bottle units (BU) as previously described (2) and results reported as M of correct responses for each odor in each treatment group. References: (1) Henkin, R. I. Evaluation and treatment of human olfactory dysfunction, in Otolaryngology (English, G. M. Ed.), Lip pincott, Philadelphia, 1993, Vol. 2, pp. 1-86. (2) Henkin, R. I., Schecter, P. J., Friedewald, W. T., DeMets, D. L., Raff, M. S. A double blind study of the effects of zinc sulfate on taste and smell dysfunction. Amer. J. Med. Sci. 1976; 272: 285-299.
(§1) Theophylline was administered to a patient who had loss of taste and smell from COVID-19. A formulation containing 80 μg of theophylline was administered via two actuations from nasal spray device once per day. Prior to the initial administration of theophylline, a baseline smell test was performed. A follow-up smell test was performed 3 months after the initial administration. […] The patient's detection threshold (DT) and recognition threshold (RT) for pyridine (Pyr), nitrobenzene (NO2B), thiophene (Thio) and amyl acetate (AA) was determined before treatment (pre) and after treatment (3M). In all four odorant tests, the patient's detection threshold and recognition threshold improved. An improvement of 1 bottle unit means that a patient could detect and/or recognize an odorant that was 10 times lower in concentration, when compared to baseline. For example, the recognition threshold (RT) of AA improved by 8 bottle units, also equivalent to an improvement of 8 orders of magnitude. In this case, the patient could detect a concentration of AA that was 10^8 lower in concentration. Bottle unit numbers that are 5 or lower are considered to be in the range of normal.

[2] = system: patient who had loss of taste and smell from COVID-19; test: Side effects reported during intranasal theophylline treatment; format: in vivo, human; settings: 80 μg theophylline via nasal spray once per day, 3 months
Protocol: as §1

[3] = 3 months after initial administration, 80 μg theophylline nasal spray once per day, Pre value 10
[4] = 3 months after initial administration, 80 μg theophylline nasal spray once per day, Pre value 11
[5] = 3 months after initial administration, 80 μg theophylline nasal spray once per day, Pre value 12

## Cn1c(=O)c2[nH]cnc2n(C)c1=O [theophylline]
[1]; [3]
  DT Thio (detection threshold, thiophene): 4 bottle units
  RT Thio (recognition threshold, thiophene): 4 bottle units
[1]; [4]
  DT AA (detection threshold, amyl acetate): 4 bottle units
  DT NO2B (detection threshold, nitrobenzene): 9 bottle units
  RT Pyr (recognition threshold, pyridine): 7 bottle units
[1]; 3 months after initial administration, 80 μg theophylline nasal spray once per day, Pre value 11, 5 or lower is normal
  DT Pyr (detection threshold, pyridine): 7 bottle units
[1]; [5]
  RT AA (recognition threshold, amyl acetate): 4 bottle units
  RT NO2B (recognition threshold, nitrobenzene): 9 bottle units
[1]; 3 months vs baseline, 80 μg theophylline nasal spray once per day
  improvement of recognition threshold (RT) of AA: 8 bottle units
[1]; 3 months vs baseline, 1 bottle unit = 10 times lower concentration
  factor by which the detectable concentration of AA was lower: 10^8
[1]; 3 months vs baseline, pyridine, nitrobenzene, thiophene, amyl acetate
  detection threshold and recognition threshold in all four odorant tests: improved
[2]
  side effects: No side effects
